Four compounds from patent EP4671262A1, “NOVEL PEPTIDE EXHIBITING SKIN CONDITION IMPROVEMENT ACTIVITY AND COSMETIC COMPOSITION CONTAINING SAME” (Daebong LS Co., Ltd., priority 2023, dated 2024) can be followed below.

One test deals with B16F10 cells. Kind of test: Melanin synthesis inhibition in α-MSH-stimulated melanocytes. The class given is cell-based, Mouse. As to conditions: 72 hours, α-MSH alone = 100. How it is done:
Mouse-derived melanocytes (B16F10 cells) were obtained from the American Type Culture Collection (ATCC) and used. The cells were cultured in Dulbecco's Modified Eagle's Medium (DMEM) supplemented with 1% penicillin-streptomycin and 10% fetal bovine serum (FBS) at 37 °C in a 5% CO2 incubator, and subcultured every 3 to 4 days.
B16F10 cells were seeded at 6.0 × 10^4 cells/well in a 6-well plate and cultured for 24 hours at 37 °C in a 5% CO2 incubator. The culture medium was then replaced with phenol red-free, serum-free DMEM, followed by treatment with α-MSH, a melanin production-inducing hormone, and the peptide from the above Preparation Example at concentrations ranging from 1 to 100 µM. The cells were incubated for 72 hours, after which they were collected and lysed with 1 N NaOH in an 80 °C heating block to dissolve intracellular melanin. The absorbance of the resulting solution was measured at 490 nm. The control group was treated with arbutin at a concentration of 500 µg/mL.

The test system of another test is NHDF cells. Kind of test: Procollagen Type I Peptide (PIP) production, EIA of culture supernatant. The class given is cell-based, Human. To be noted: 24 hours, untreated group = 100. On the procedure: Normal Human Dermal Fibroblasts (NHDF) were obtained from Lonza (Lonza Walkersville, Inc.) and cultured in FBM (Fibroblast Basal Medium) supplemented with 0.1% hFGF-B, insulin, GA-1000, and 2% FBS at 37°C in a 5% CO2 incubator. Subculture was performed every 2 to 3 days.
NHDF cells were seeded at 2.0 × 10^4 cells/well in a 24-well plate and incubated for 24 hours at 37°C in a 5% CO2 incubator. After incubation, the culture medium was replaced with serum-free FBM, and the peptide prepared in the above Example was applied at concentrations of 1-100 µM, followed by incubation for 24 hours. The supernatant from each experimental group was collected, and the amount of procollagen released into the medium was measured. The positive control group was treated with ascorbic acid at a concentration of 0.001 v/v%. Measurement of procollagen levels was performed using a Procollagen Type I Peptide (PIP) EIA Kit (Takara Biomedical Co.) according to the manufacturer's protocol. The quantitative results of procollagen type I peptide production following treatment with the peptide of the Example are shown in Table 2 and Fig. 3.

A further test deals with HaCaT cells. Kind of test: Hyaluronic acid (HA) production, ELISA of culture supernatant. It counts as cell-based, human. As to conditions: 24 hours, untreated group = 100. How it is done:
The HaCaT human keratinocyte cell line was obtained from Cell Line Service GmbH (Germany). The cells were cultured in DMEM containing 1% penicillin-streptomycin and 10% fetal bovine serum (FBS) at 37°C in a 5% CO2 incubator, and subculture was performed every 2 to 3 days.
HaCaT cells were seeded at 1.0 × 10^5 cells/well in a 24-well plate and incubated for 24 hours at 37°C in a 5% CO2 incubator. After incubation, the culture medium was replaced with serum-free DMEM, and the peptide prepared in the above Example was applied at concentrations of 50-200 µM, followed by incubation for 24 hours. The supernatant from each experimental group was collected, and the amount of hyaluronic acid (HA) released into the medium was measured. The positive control group was treated with N-acetylglucosamine at a concentration of 10 mM. Measurement of hyaluronic acid production was conducted using a Hyaluronic Acid ELISA Kit (Cusabio Biotechnology Co., Ltd.) following the manufacturer's protocol.
For orientation: ELISA stands for enzyme-linked immunosorbent assay.

As to `OC[C@H]1O[C@@H](Oc2ccc(O)cc2)[C@H](O)[C@@H](O)[C@@H]1O` [Arbutin, arbutin], the “Melanin production (%)” value in the test with B16F10 cells (500 µg/mL (control) with α-MSH (200 nM)) turned out to be 59.6±0.8%.
In the case of `O=C1O[C@H]([C@@H](O)CO)C(O)=C1O` [Asc.A, ascorbic acid], the “Procollagen production (%)” value in the test with NHDF cells (10 µg/mL (positive control)) was 159.45±3.8%.
On to `CC(=O)N[C@H]1C(O)O[C@H](CO)[C@@H](O)[C@@H]1O` (stereo partly shown) [NAG, N-acetylglucosamine], for which the “Hyaluronic acid production (%)” value with HaCaT cells (10 mM (positive control)) turned out to be 125.52±1.18%.
Take “Ala-Ala-Gln-Pro-Arg (AAQPR; printed: Ala-Ala-Gln-Pro-Arg)”: the “Melanin production (%)” value in the test with B16F10 cells (1 µM with α-MSH (200 nM)) is given as 100.86±4.32%; in the test on B16F10 cells (10 µM with α-MSH (200 nM)), 89.62±2.95%; in the test on B16F10 cells (100 µM with α-MSH (200 nM)) it was 79.76±4.18%. Also, the entries for the “Hyaluronic acid production (%)” value with HaCaT cells (50 µM), in the test on HaCaT cells (100 µM) and in the test on HaCaT cells (200 µM) were 107.14±1.08%, 130.93±0.59% and 136.91±6.87%, respectively. For the same compound, the “Procollagen production (%)” value in the test with NHDF cells (1 µM) was found to be 105.45±3.15%; with NHDF cells (10 µM), 129.75±9.74%; in the test with NHDF cells (50 µM), 132.64±13.74%; with NHDF cells (100 µM) it was 134.92±1.3%.
